Assay: xn = mol fraction of the nth substance listed

C1COCO1 + C1CCCCC1
viscosity [mPa·s], 101.3 kPa
Settings	x2 = 0.0994	x2 = 0.1978	x2 = 0.3014	x2 = 0.3991	x2 = 0.4961	x2 = 0.5974	x2 = 0.6998	x2 = 0.8012	x2 = 0.8994
298.15 K	0.5886	0.593	0.6047	0.6199	0.6405	0.6642	0.6971	0.7404	0.8026
313.15 K	0.4948	0.4959	0.5024	0.5119	0.5256	0.5441	0.5653	0.5967	0.6392

ClC(Cl)C(Cl)(Cl)Cl + C1COCCO1
303.15 K, 101 kPa
Settings	viscosity [mPa·s]
x2 = 0.0967	2.052
x2 = 0.1938	2.133
x2 = 0.2925	2.141
x2 = 0.3925	2.108
x2 = 0.4926	2.011
x2 = 0.5951	1.851
x2 = 0.6928	1.65
x2 = 0.795	1.463
x2 = 0.8962	1.289

CCCCCCCC/C=C\CCCCCCCC(=O)OCC(COC(=O)CCCCCCC/C=C\CCCCCCCC)OC(=O)CCCCCCC/C=C\CCCCCCCC + CCCCCCCC
viscosity [mPa·s], 101.33 kPa
Settings	x1 = 0.000908	x1 = 0.001916	x1 = 0.004907	x1 = 0.0101	x1 = 0.02609	x1 = 0.03555	x1 = 0.05997	x1 = 0.08297
293.15 K	0.5531	0.5668	0.6068	0.6753	0.9348	1.11	1.638	2.268
298.15 K	0.5204	0.5329	0.5699	0.6331	0.8701	1.03	1.505	2.064
303.15 K	0.4903	0.502	0.536	0.5947	0.8126	0.9579	1.388	1.894
308.15 K	0.4628	0.4737	0.5055	0.5596	0.7605	0.8936	1.284	1.741
313.15 K	0.4377	0.4478	0.4774	0.5277	0.7134	0.8357	1.191	1.606

CCC(O)CC + c1ccccc1
293.15 K, 101 kPa
Settings	viscosity [mPa·s]
x1 = 0.00635	0.6446
x1 = 0.01101	0.6433
x1 = 0.01253	0.643
x1 = 0.01995	0.6415
x1 = 0.02106	0.6411
x1 = 0.02501	0.641
x1 = 0.02806	0.6407
x1 = 0.03344	0.6406
x1 = 0.03446	0.6405
x1 = 0.03706	0.6399
x1 = 0.04178	0.6401
x1 = 0.04896	0.6415
x1 = 0.05587	0.6414
x1 = 0.06451	0.6436
x1 = 0.08637	0.6486
x1 = 0.1808	0.6856
x1 = 0.2725	0.7429
x1 = 0.3756	0.835
x1 = 0.468	0.9578
x1 = 0.6521	1.402
x1 = 0.7757	1.943
x1 = 0.8899	2.92

CN(C)P(=O)(N(C)C)N(C)C + CCCO
303.15 K, 101.3 kPa
Settings	viscosity [mPa·s]
x1 = 0.0989	1.896
x1 = 0.1996	1.991
x1 = 0.3022	2.102
x1 = 0.4027	2.217
x1 = 0.4525	2.272
x1 = 0.598	2.444
x1 = 0.6994	2.569
x1 = 0.7809	2.666
x1 = 0.8672	2.766

CCCCCCCCC + CCCCCCCCCCCCCCCC
298.15 K, 101.33 kPa
Settings	viscosity [mPa·s]
x1 = 0.1105	2.698
x1 = 0.2002	2.416
x1 = 0.3173	2.072
x1 = 0.4054	1.832
x1 = 0.5056	1.571
x1 = 0.5795	1.404
x1 = 0.7077	1.152
x1 = 0.8024	0.9655
x1 = 0.8988	0.8177

ClC(Cl)C(Cl)(Cl)Cl + CCOc1ccccc1
298.15 K, 101 kPa
Settings	viscosity [mPa·s]
x2 = 0.0971	2.1
x2 = 0.2214	1.92
x2 = 0.4895	1.607
x2 = 0.6798	1.393
x2 = 0.903	1.206

CC(=O)c1ccccc1 + CC#N
308.15 K, 101 kPa
Settings	viscosity [mPa·s]
x1 = 0.048	0.34
x1 = 0.1023	0.3845
x1 = 0.1626	0.4361
x1 = 0.2321	0.4959
x1 = 0.3113	0.5746
x1 = 0.4024	0.6736
x1 = 0.5125	0.8002
x1 = 0.6426	0.9514
x1 = 0.8018	1.144
x1 = 0.9135	1.284

FCC(F)(F)F + FC(F)C(F)(F)F
viscosity [mPa·s], 101 kPa
Settings	x1 = 0.25	x1 = 0.5	x1 = 0.746
298.15 K	0.158	0.1739	0.1862
313.15 K	0.1263	0.1395	0.151

FCC(F)(F)F + OCCOCCOCCO
viscosity [mPa·s], 101.32 kPa
Settings	x2 = 0.732	x2 = 0.733	x2 = 0.79	x2 = 0.791	x2 = 0.901	x2 = 0.903
293.15 K	11.3	–	15.8	–	28.9	–
313.15 K	–	5.52	–	7.14	–	11.2

C[N+](C)(C)CCO.O=C([O-])CCCC[C@@H]1SC[C@@H]2NC(=O)N[C@@H]21 + O
viscosity [mPa·s], 100 kPa
Settings	x1 = 0.0009415	x1 = 0.001329	x1 = 0.001899	x1 = 0.002797	x1 = 0.003833	x1 = 0.005474
293.15 K	1.044	1.058	1.079	1.111	1.146	1.2
298.15 K	0.927	0.939	0.957	0.984	1.014	1.06
303.15 K	0.829	0.84	0.855	0.879	0.905	0.944
308.15 K	0.747	0.756	0.77	0.79	0.812	0.846
313.15 K	0.678	0.686	0.698	0.716	0.735	0.765

Cc1cccc(C)n1 + c1ccccc1
viscosity [mPa·s], 101 kPa
Settings	x1 = 0.0985	x1 = 0.1989	x1 = 0.2996	x1 = 0.3945	x1 = 0.5025	x1 = 0.5994	x1 = 0.6976	x1 = 0.8006	x1 = 0.9013
303 K	0.5677	0.58	0.607	0.6191	0.6385	0.6614	0.6823	0.7108	0.7403
313 K	0.501	0.514	0.5301	0.5472	0.5654	0.5824	0.6012	0.6267	0.648
323 K	0.4471	0.4595	0.4735	0.4858	0.5011	0.5177	0.5355	0.5569	0.5778

Cc1cccc(C)n1 + C1CCCCC1
viscosity [mPa·s], 101 kPa
Settings	x1 = 0.104	x1 = 0.198	x1 = 0.306	x1 = 0.4003	x1 = 0.503	x1 = 0.6001	x1 = 0.705	x1 = 0.799	x1 = 0.898
303 K	0.727	0.6904	0.67	0.6636	0.6619	0.6624	0.6771	0.6933	0.7297
313 K	0.6341	0.6026	0.5879	0.58	0.5789	0.5888	0.601	0.615	0.6426
323 K	0.5572	0.5372	0.5288	0.5212	0.5181	0.5208	0.5361	0.5491	0.5758

C1COCO1 + CCO
303.15 K, 101 kPa
Settings	viscosity [mPa·s]
x1 = 0.06463	0.898
x1 = 0.1346	0.838
x1 = 0.2104	0.7691
x1 = 0.2931	0.6852
x1 = 0.3834	0.6333
x1 = 0.4826	0.6121
x1 = 0.592	0.591
x1 = 0.7133	0.5886
x1 = 0.8484	0.569

C1COCO1 + O
viscosity [mPa·s], 101 kPa
Settings	298.15 K	303.15 K	308.15 K	313.15 K	318.15 K	323.15 K
x1 = 0.01	0.754	–	0.6051	–	0.5251	–
x1 = 0.026	0.813	–	0.6561	–	0.5671	–
x1 = 0.03	–	0.8133	–	0.6555	–	0.5673
x1 = 0.041	0.8741	–	0.7144	–	0.6071	–
x1 = 0.06	–	0.8766	–	0.7152	–	0.6053
x1 = 0.09	–	0.9304	–	0.7618	–	0.6297

[Al+3].[Cl-].[Cl-].[Cl-] + O
Settings	viscosity [mPa·s]
293.15 K, 101 kPa, x1 = 0.039	5.58

C1COCO1 + c1ccccc1
101.3 kPa
Settings	viscosity [mPa·s]
298.15 K, x2 = 0.0968	0.5944
298.15 K, x2 = 0.199	0.597
298.15 K, x2 = 0.3032	0.5997
298.15 K, x2 = 0.4021	0.6022
298.15 K, x2 = 0.505	0.6045
298.15 K, x2 = 0.6016	0.6064
298.15 K, x2 = 0.704	0.6079
298.15 K, x2 = 0.7993	0.6089
298.15 K, x2 = 0.8946	0.6094
313.15 K, x2 = 0.1006	0.5001
313.15 K, x2 = 0.1994	0.5003
313.15 K, x2 = 0.299	0.5005
313.15 K, x2 = 0.3987	0.5005
313.15 K, x2 = 0.5003	0.5004
313.15 K, x2 = 0.5985	0.4998
313.15 K, x2 = 0.6993	0.4988
313.15 K, x2 = 0.7998	0.4976
313.15 K, x2 = 0.8987	0.4959

CCCOCC(C)O (centres undefined) + CCN(CC)CC
viscosity [mPa·s], 100 kPa
Settings	298.15 K	303.15 K	308.15 K
x1 = 0.0502	0.4177	0.3933	0.3699
x1 = 0.1001	0.4846	0.4496	0.4206
x1 = 0.1501	0.5523	0.5096	0.476
x1 = 0.2016	0.6258	0.5726	0.5332
x1 = 0.3	0.7805	0.7042	0.6523
x1 = 0.4	0.9537	0.8515	0.7863
x1 = 0.5	1.153	1.017	0.9326
x1 = 0.5998	1.382	1.207	1.102
x1 = 0.6999	1.625	1.406	1.281
x1 = 0.7996	1.887	1.629	1.474
x1 = 0.8998	2.169	1.87	1.682
x1 = 0.9499	2.304	1.973	1.775

C[N+](C)(C)C.[Cl-] + Oc1ccccc1
viscosity [mPa·s], 101 kPa
Settings	303.15 K	313.15 K	323.15 K
x1 = 0.2	23.35	16.88	11.9
x1 = 0.25	36.91	23.75	16.31

CCCCCCCCC + CC(C)CC(C)(C)C
298.15 K, 101 kPa
Settings	viscosity [mPa·s]
x2 = 0.07718	0.6409
x2 = 0.2128	0.6118
x2 = 0.3294	0.5969
x2 = 0.4097	0.5806
x2 = 0.5252	0.5564
x2 = 0.6958	0.5351
x2 = 0.7143	0.5219
x2 = 0.8186	0.5071
x2 = 0.8823	0.4985
x2 = 0.9211	0.4877
x2 = 0.9661	0.4829

FCC(F)(F)F + OCCO
viscosity [mPa·s], 101.32 kPa
Settings	x2 = 0.948	x2 = 0.949	x2 = 0.964	x2 = 0.965	x2 = 0.974	x2 = 0.975
293.15 K	16.9	–	17.1	–	17.9	–
313.15 K	–	7.76	–	7.91	–	7.86

Cn1cc[n+](CC(O)CNCCN(CCNCC(O)C[n+]2ccn(C)c2)CC(O)C[n+]2ccn(C)c2)c1.[Cl-].[Cl-].[Cl-] (centres undefined) + O
101.33 kPa, x2 = 0.49
Settings	viscosity [mPa·s]
298.15 K	1956
308.15 K	779.1
318.15 K	370.5

CC(=O)c1ccccc1 + OCc1ccccc1
303.15 K, 101 kPa
Settings	viscosity [mPa·s]
x1 = 0.0742	4.331
x1 = 0.2566	3.618
x1 = 0.3107	3.42
x1 = 0.4505	2.937
x1 = 0.528	2.685
x1 = 0.5727	2.544
x1 = 0.7494	2.036
x1 = 0.8383	1.82
x1 = 0.9234	1.638

CC(=O)c1ccccc1 + CCCCCO
298.15 K, 101 kPa
Settings	viscosity [mPa·s]
x1 = 0.0754	3.104
x1 = 0.155	3.016
x1 = 0.2392	2.918
x1 = 0.3285	2.801
x1 = 0.4232	2.657
x1 = 0.524	2.498
x1 = 0.6313	2.31
x1 = 0.7459	2.102
x1 = 0.8685	1.898

ClC(Cl)C(Cl)(Cl)Cl + CC(=O)c1ccccc1
298.15 K, 101 kPa
Settings	viscosity [mPa·s]
x2 = 0.1163	2.34
x2 = 0.3295	2.36
x2 = 0.5338	2.26
x2 = 0.7313	2.03
x2 = 0.8974	1.8

Source: the CheMixHub viscosity set
